Source: patent US12427192B2, “Water soluble adjuvant and composition containing same” (Sumitomo Pharma Co., Ltd., priority 2019, dated 2025)

Key:
human TLR7 = target: T1, human TLR7 (Homo sapiens, UniProt Q9NYK1); experiment: Human TLR7 reporter gene assay (TLR7/NF-κB/SEAPorter HEK293 cell line), Tests 1 and 21; type: cell-based; conditions: Test 1; TLR7/NF-κB/SEAPorter HEK293 cell line; half of maximal SEAP induction; 24-hour incubation, 0.1% DMSO; read-out: EC50
T1 construct: expresses full-length human TLR7 and secretory alkaline phosphatase (SEAP) reporter gene; host or cells: HEK293 (TLR7/NF-κB/SEAPorter)
T1 sequence (Q9NYK1 27-1049): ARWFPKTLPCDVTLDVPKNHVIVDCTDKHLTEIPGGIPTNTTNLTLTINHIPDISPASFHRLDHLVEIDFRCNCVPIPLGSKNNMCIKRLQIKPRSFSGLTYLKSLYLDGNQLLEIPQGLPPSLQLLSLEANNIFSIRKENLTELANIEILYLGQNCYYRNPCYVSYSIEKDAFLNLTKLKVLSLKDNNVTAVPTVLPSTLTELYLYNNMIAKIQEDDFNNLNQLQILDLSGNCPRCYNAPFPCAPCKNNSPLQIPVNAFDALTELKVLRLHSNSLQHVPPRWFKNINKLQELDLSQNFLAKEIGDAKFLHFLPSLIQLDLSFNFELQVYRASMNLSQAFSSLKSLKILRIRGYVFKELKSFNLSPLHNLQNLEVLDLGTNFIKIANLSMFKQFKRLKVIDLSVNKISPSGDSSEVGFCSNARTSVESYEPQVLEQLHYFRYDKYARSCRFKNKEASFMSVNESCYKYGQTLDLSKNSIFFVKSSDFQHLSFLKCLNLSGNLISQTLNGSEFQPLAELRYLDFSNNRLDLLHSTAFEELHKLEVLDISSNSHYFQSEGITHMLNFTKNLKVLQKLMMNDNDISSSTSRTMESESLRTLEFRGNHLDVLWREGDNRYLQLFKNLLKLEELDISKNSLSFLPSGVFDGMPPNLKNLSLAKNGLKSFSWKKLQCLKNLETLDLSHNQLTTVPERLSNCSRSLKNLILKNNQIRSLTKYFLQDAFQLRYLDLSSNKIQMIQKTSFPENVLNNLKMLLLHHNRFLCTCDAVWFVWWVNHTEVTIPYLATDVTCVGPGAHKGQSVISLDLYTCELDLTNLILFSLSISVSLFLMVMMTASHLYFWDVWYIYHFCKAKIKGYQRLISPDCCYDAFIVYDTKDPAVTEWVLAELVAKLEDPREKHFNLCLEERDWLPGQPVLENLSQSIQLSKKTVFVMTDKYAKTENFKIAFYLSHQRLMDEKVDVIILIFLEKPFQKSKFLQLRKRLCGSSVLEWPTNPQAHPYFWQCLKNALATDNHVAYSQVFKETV
Text: Human TLR7 Reporter Gene Assay
TLR7/NF-κB/SEAPorter™ HEK293 cell line (Imgenex Corporation) is a stably co-transfected cell line which expresses full-length human TLR7 and secretory alkaline phosphatase (SEAP) reporter gene under the transcriptional regulation of an NF-κB response element. The TLR7 expression of the cell line has been already tested by flow cytometry. Transfectants with stable expression were selected using the antibiotic blasticidin and Geneticin. TLR signaling leads to the translocation of NF-κB and the activation of the promoter results in expression of the SEAP gene. TLR7-specific activation was assessed by determining the level of SEAP produced following 24-hour incubation of the cells at 37° C. with each compound prepared in Examples and Reference examples in the presence of 0.1% (v/v) dimethylsulfoxide (DMSO). The human TLR7 activity for the present compound was assessed by human TLR7 reporter gene assay, and the results are shown in Tables 3 and 4 as the compound concentration which produced half of the maximal level of SEAP induction (EC50)
According to the method of Test 1, human TLR7 reporter gene assay was done with the following samples, and the result was shown in the table below.

mouse TLR7 = target: T2, mouse TLR7 (Mus musculus, UniProt P58681); experiment: Mouse TLR7 reporter gene assay (HEK-Blue mTLR7 cell line), Test 2; type: cell-based; conditions: half of maximal SEAP induction, 20-24-hour incubation, 0.1% DMSO
T2 construct: expresses full-length mouse TLR7 and secretory SEAP reporter gene; host or cells: HEK-Blue mTLR7 (HEK293-derived)
T2 sequence (P58681 27-1050): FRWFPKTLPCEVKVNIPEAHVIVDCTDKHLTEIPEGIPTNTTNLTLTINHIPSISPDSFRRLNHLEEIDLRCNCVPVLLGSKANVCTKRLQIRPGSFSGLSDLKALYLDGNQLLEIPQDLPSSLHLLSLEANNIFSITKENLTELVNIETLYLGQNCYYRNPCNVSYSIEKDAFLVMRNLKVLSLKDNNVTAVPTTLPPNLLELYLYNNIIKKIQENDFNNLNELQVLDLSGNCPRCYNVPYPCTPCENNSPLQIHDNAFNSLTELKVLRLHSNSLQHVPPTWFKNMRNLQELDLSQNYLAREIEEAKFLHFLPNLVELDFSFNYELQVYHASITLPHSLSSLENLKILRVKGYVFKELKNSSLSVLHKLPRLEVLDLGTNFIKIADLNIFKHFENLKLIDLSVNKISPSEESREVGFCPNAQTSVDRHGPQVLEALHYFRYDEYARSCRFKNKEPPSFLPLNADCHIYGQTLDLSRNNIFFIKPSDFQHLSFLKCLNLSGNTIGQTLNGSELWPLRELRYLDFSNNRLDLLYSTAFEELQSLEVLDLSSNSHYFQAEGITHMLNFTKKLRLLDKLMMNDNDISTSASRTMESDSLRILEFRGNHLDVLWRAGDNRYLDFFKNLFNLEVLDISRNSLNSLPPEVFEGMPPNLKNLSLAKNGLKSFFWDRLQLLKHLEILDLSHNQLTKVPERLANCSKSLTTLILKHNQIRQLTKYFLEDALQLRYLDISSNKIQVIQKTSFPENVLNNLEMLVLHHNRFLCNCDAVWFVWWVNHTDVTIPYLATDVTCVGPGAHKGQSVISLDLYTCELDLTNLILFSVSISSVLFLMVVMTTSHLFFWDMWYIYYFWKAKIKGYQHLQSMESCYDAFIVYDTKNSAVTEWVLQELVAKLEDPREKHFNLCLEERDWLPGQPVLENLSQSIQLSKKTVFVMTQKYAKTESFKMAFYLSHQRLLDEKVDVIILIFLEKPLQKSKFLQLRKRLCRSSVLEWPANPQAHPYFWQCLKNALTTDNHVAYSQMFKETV
Text: Test 2 Mouse TLR7 Reporter Gene Assay
HEK-Blue™ mTLR7 cell line (Invivogen) is a stably co-transfected cell line which expresses full-length mouse TLR7 and secretory SEAP reporter gene under the transcriptional regulation of an NF-κB response element. The TLR7 expression of the cell line has been already tested by RT-PCR. Transfectants with stable expression were selected using the antibiotic blasticidin and Zeocin. TLR signaling leads to the translocation of NF-κB and the activation of the promoter results in expression of the SEAP gene. TLR7-specific activation was assessed by determining the level of SEAP produced following 20-24-hour incubation of the cells at 37° C. with each compound prepared in Examples and Reference examples in the presence of 0.1% (v/v) DMSO. The mouse TLR7 activity for the present compound was assessed by mouse TLR7 reporter gene assay, and the results are shown in Tables 5 and 6 as the compound concentration which produced half of the maximal level of SEAP induction (EC50).

EC50 (human TLR7) | EC50 (mouse TLR7) | Compound
68 nM | 28 nM | CCCCCNc1nc(N)nc(C)c1Cc1ccc(CN(C)CCOCCOCCOCCOCCO)cc1OC [Example 1, 1-(4-{[2-amino-4-methyl-6-(pentylamino)pyrimidin-5-yl]methyl}-3-methoxyphenyl)-2-methyl-5,8,11,14-tetraoxa-2-azahexadecan-16-ol·trifluoroacetate]
50 nM | 15 nM | CCCCCNc1nc(N)nc(C)c1Cc1ccc(CNC)cc1OC [Reference example 12, 5-({2-methoxy-4-[(methylamino)methyl]phenyl}methyl)-6-methyl-N^4-pentylpyrimidine-2,4-diamine, reference compound]
